The kinase profiling compilation of Christmann-Franck et al. (2016)

How the values were obtained:
Assay in all cases: KINOMEscan competition binding
Conditions in all cases: compound 10.0 µM
LIMK1 (human) = LIMK1 (human) (UniProt P53667)
PRKAA2 (human) = PRKAA2 (human) (UniProt P54646)
NTRK3 (human) = NTRK3 (human) (UniProt Q16288)
MAPK10 (human) = MAPK10 (human) (UniProt P53779)
FGR (human) = FGR (human) (UniProt P09769)
MAP4K2 (human) = MAP4K2 (human) (UniProt Q12851)
CDK3 (human) = CDK3 (human) (UniProt Q00526)
PKN1 (human) = PKN1 (human) (UniProt Q16512)
TNK1 (human) = TNK1 (human) (UniProt Q13470)
PRKG2 (human) = PRKG2 (human) (UniProt Q13237)
CDK11B (human) = CDK11B (human) (UniProt P21127)
MYO3B (human) = MYO3B (human) (UniProt Q8WXR4)
DCLK3 (human) = DCLK3 (human) (UniProt Q9C098)
[1] = tested on: KIT (human), P10721 [D816V]
STK24 (human) = STK24 (human) (UniProt Q9Y6E0)
MAP4K4 (human) = MAP4K4 (human) (UniProt O95819)
[2] = target: TYK2 JH1 catalytic (human) (UniProt P29597)
EPHA8 (human) = EPHA8 (human) (UniProt P29322)
RPS6KA6 KD1 (human) = RPS6KA6 KD1 (human) (UniProt Q9UK32)
STK38L (human) = STK38L (human) (UniProt Q9Y2H1)
FGFR2 (human) = FGFR2 (human) (UniProt P21802)
PRKCE (human) = PRKCE (human) (UniProt Q02156)
NEK5 (human) = NEK5 (human) (UniProt Q6P3R8)
STK4 (human) = STK4 (human) (UniProt Q13043)
PIP5K1A (human) = PIP5K1A (human) (UniProt Q99755)
EPHA1 (human) = EPHA1 (human) (UniProt P21709)
MLTK (human) = MLTK (human) (UniProt Q9NYL2)
GAK (human) = GAK (human) (UniProt O14976)
RPS6KA4 KD2 (human) = RPS6KA4 KD2 (human) (UniProt O75676)
[3] = tested on: EIF2AK4 KD2 (human), Q9P2K8 [S808G]
PKN2 (human) = PKN2 (human) (UniProt Q16513)
CDK8 (human) = CDK8 (human) (UniProt P49336)
CDK17 (human) = CDK17 (human) (UniProt Q00537)
FGFR3 (human) = FGFR3 (human) (UniProt P22607)
CDC42BPG (human) = CDC42BPG (human) (UniProt Q6DT37)
CAMKK1 (human) = CAMKK1 (human) (UniProt Q8N5S9)
STK16 (human) = STK16 (human) (UniProt O75716)
PTK2B (human) = PTK2B (human) (UniProt Q14289)
STK10 (human) = STK10 (human) (UniProt O94804)
[4] = tested on: ABL1 (human), P00519 [M351T]

Sequence of CDK8 (human) (P49336 whole entry, looked up): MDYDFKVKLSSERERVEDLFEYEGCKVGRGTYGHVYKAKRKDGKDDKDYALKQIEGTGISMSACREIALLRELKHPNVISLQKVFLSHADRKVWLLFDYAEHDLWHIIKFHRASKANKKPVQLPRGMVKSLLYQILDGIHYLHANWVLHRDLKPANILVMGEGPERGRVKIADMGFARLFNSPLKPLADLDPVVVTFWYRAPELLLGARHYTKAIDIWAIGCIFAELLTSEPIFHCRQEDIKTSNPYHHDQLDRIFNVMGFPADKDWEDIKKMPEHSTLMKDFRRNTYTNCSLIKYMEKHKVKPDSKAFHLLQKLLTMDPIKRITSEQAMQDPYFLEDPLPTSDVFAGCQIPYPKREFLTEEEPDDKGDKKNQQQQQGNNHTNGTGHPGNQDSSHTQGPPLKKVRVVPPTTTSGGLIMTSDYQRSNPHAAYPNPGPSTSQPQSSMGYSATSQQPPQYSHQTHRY
Sequence of CDK11B (human) (P21127 whole entry, looked up): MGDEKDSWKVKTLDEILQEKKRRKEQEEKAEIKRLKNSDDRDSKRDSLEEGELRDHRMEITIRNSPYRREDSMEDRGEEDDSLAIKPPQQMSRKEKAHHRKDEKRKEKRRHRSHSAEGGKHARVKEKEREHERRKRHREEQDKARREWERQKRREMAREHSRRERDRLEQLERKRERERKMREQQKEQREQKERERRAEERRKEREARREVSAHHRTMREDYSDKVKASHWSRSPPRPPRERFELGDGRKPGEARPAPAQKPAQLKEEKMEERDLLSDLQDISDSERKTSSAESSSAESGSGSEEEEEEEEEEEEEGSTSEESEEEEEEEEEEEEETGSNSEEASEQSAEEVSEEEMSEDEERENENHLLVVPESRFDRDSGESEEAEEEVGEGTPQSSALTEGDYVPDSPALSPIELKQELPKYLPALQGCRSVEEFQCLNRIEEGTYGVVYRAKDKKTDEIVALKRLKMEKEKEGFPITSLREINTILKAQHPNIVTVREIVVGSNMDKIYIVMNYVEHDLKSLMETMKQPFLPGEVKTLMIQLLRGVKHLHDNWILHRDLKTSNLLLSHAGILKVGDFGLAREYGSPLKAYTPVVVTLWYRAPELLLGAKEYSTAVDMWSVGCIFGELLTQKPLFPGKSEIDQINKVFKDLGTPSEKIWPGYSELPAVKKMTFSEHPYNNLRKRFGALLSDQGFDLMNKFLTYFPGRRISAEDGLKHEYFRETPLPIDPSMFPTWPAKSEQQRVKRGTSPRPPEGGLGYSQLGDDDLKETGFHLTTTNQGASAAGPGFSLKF
Sequence of PRKAA2 (human) (P54646 whole entry, looked up): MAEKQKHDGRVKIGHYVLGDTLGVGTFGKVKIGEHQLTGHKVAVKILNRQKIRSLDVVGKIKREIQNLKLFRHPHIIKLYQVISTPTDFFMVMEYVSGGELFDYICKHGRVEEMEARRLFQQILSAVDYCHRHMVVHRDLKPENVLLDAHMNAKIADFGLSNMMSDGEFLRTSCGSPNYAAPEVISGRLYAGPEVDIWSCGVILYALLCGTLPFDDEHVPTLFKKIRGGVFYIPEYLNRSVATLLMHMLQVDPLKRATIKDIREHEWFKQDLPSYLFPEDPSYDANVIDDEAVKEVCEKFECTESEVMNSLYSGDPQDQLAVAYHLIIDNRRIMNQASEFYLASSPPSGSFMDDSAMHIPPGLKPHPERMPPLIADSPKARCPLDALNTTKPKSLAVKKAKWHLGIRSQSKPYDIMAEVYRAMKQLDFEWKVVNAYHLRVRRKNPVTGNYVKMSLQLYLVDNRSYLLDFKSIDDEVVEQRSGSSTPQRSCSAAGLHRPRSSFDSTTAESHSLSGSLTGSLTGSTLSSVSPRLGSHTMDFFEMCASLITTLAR
Sequence of MAPK10 (human) (P53779 whole entry, looked up): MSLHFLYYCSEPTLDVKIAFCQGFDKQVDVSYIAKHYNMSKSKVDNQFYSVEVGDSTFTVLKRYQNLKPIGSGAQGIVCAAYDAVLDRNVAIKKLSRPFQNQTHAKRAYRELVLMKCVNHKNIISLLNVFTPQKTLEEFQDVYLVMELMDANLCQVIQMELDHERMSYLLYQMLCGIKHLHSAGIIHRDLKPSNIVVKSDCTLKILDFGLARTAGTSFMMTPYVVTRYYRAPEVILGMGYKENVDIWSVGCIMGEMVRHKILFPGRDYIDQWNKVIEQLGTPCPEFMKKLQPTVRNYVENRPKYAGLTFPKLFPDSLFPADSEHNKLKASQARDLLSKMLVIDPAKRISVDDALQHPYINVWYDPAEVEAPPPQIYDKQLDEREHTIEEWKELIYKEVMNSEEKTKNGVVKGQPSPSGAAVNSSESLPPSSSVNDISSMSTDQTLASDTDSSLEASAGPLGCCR
Sequence of NTRK3 (human) (Q16288 whole entry, looked up): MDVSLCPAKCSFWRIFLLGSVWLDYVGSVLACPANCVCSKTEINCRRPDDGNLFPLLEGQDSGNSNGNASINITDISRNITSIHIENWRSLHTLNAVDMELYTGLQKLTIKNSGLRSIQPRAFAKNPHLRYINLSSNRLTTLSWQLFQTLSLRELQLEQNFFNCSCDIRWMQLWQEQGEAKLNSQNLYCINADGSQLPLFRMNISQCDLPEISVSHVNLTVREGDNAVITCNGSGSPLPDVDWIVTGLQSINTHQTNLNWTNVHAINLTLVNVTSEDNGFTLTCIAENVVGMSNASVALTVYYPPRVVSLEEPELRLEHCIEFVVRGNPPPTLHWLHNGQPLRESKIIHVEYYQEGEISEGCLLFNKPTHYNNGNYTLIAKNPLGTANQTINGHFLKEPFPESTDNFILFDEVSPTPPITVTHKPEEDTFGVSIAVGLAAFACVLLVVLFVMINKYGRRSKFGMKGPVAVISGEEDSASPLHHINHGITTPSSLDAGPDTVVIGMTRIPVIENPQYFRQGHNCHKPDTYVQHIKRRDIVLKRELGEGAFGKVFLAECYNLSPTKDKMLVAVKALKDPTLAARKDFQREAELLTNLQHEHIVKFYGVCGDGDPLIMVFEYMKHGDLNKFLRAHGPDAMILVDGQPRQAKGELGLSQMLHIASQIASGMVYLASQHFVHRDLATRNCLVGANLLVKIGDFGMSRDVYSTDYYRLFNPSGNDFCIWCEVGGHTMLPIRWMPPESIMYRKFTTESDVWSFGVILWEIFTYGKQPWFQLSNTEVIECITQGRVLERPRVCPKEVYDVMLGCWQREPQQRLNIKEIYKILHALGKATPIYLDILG
Sequence of PRKG2 (human) (Q13237 whole entry, looked up): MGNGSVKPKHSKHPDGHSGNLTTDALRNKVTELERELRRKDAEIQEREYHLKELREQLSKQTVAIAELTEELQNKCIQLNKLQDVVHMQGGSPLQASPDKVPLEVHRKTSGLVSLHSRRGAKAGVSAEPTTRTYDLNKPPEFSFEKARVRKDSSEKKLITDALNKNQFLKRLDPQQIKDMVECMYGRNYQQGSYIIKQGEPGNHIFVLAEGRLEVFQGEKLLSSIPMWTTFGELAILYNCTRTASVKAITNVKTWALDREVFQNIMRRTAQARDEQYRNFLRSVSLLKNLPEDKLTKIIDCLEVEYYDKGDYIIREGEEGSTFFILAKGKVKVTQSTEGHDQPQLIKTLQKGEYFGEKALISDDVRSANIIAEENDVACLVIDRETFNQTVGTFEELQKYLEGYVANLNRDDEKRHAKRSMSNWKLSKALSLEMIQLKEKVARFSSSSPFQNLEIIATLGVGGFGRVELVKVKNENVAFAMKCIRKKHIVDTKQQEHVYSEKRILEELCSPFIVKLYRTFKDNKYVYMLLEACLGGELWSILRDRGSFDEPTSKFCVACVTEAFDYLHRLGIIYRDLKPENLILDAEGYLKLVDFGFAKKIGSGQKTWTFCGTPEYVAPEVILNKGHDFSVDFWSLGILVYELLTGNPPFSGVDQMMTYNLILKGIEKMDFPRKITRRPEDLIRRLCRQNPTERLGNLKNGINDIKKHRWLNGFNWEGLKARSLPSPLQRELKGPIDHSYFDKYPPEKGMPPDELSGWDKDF
Sequence of PKN1 (human) (Q16512 whole entry, looked up): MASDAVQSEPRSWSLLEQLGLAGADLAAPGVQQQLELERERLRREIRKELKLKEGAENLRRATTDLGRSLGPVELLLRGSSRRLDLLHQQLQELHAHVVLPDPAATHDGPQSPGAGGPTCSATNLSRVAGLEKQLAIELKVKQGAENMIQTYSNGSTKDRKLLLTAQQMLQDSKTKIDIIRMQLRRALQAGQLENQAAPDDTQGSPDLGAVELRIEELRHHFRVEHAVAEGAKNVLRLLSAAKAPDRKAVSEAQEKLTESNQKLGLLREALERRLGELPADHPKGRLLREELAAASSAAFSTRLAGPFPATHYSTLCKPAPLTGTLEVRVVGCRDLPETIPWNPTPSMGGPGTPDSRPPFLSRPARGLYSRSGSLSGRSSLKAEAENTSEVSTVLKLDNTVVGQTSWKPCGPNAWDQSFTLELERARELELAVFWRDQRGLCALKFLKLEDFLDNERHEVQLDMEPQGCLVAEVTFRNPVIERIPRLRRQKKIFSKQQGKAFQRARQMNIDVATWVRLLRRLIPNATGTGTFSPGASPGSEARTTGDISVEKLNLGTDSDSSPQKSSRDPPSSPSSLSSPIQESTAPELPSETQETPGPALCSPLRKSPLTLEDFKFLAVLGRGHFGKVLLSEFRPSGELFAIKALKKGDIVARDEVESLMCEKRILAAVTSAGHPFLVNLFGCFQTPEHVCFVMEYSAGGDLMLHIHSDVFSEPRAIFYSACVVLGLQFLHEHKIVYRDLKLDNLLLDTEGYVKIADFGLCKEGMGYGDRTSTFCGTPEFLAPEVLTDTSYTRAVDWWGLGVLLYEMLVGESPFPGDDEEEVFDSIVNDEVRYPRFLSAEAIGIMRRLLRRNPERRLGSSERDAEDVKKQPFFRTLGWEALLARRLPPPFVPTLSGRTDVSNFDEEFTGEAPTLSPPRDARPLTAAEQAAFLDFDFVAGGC

| Structure (SMILES) | kinase still bound, per cent of control (LIMK1 (human)) [%] | kinase still bound, per cent of control (PRKAA2 (human)) [%] | kinase still bound, per cent of control (NTRK3 (human)) [%] | kinase still bound, per cent of control (MAPK10 (human)) [%] | kinase still bound, per cent of control (FGR (human)) [%] | kinase still bound, per cent of control (MAP4K2 (human)) [%] | kinase still bound, per cent of control (CDK3 (human)) [%] | kinase still bound, per cent of control (PKN1 (human)) [%] | kinase still bound, per cent of control (TNK1 (human)) [%] | kinase still bound, per cent of control (CDK11B (human)) [%] | kinase still bound, per cent of control (MYO3B (human)) [%] | kinase still bound, per cent of control (DCLK3 (human)) [%] | kinase still bound, per cent of control (STK24 (human)) [%] | kinase still bound, per cent of control (MAP4K4 (human)) [%] | kinase still bound, per cent of control [2] [%] | kinase still bound, per cent of control (EPHA8 (human)) [%] | kinase still bound, per cent of control (RPS6KA6 KD1 (human)) [%] | kinase still bound, per cent of control (STK38L (human)) [%] | kinase still bound, per cent of control (FGFR2 (human)) [%] | kinase still bound, per cent of control (PRKCE (human)) [%] | other results |
| --- | --- | --- | --- | --- | --- | --- | --- | --- | --- | --- | --- | --- | --- | --- | --- | --- | --- | --- | --- | --- | --- |
| O=C(NOC[C@H](O)CO)c1ccc(F)c(F)c1Nc1ccc(I)cc1F | 68 | 97 | 93 | 90 | 95 | 100 | 69 | 100 | 68 | 97 | 99 | 100 | 88 | 69 | 100 | 94 | 75 | 100 | 100 | 100 | kinase still bound, per cent of control (PRKG2 (human)): 86%; kinase still bound, per cent of control [1]: 87%; kinase still bound, per cent of control (NEK5 (human)): 78%; kinase still bound, per cent of control (STK4 (human)): 100%; kinase still bound, per cent of control (PIP5K1A (human)): 91%; kinase still bound, per cent of control (EPHA1 (human)): 91%; kinase still bound, per cent of control (MLTK (human)): 88%; kinase still bound, per cent of control (GAK (human)): 71%; kinase still bound, per cent of control (RPS6KA4 KD2 (human)): 100%; kinase still bound, per cent of control [3]: 84%; kinase still bound, per cent of control (PKN2 (human)): 100%; kinase still bound, per cent of control (CDK8 (human)): 100%; kinase still bound, per cent of control (CDK17 (human)): 95%; kinase still bound, per cent of control (FGFR3 (human)): 100%; kinase still bound, per cent of control (CDC42BPG (human)): 85%; kinase still bound, per cent of control (CAMKK1 (human)): 100%; kinase still bound, per cent of control (STK16 (human)): 99%; kinase still bound, per cent of control (PTK2B (human)): 98% |
| CCCS(=O)(=O)Nc1ccc(F)c(C(=O)c2c[nH]c3ncc(-c4ccc(Cl)cc4)cc23)c1F | 27 | 63 | 65 | 91 | 9.2 | 59 | 94 | 78 | 100 | 100 | 64 | 47 | 77 | 48 | 47 | 83 | 82 | 100 | 64 | 87 | kinase still bound, per cent of control (STK10 (human)): 16%; kinase still bound, per cent of control [1]: 52%; kinase still bound, per cent of control (NEK5 (human)): 100%; kinase still bound, per cent of control (STK4 (human)): 11%; kinase still bound, per cent of control [4]: 55%; kinase still bound, per cent of control (PIP5K1A (human)): 100%; kinase still bound, per cent of control (EPHA1 (human)): 82%; kinase still bound, per cent of control (MLTK (human)): 7.4%; kinase still bound, per cent of control (GAK (human)): 84%; kinase still bound, per cent of control (RPS6KA4 KD2 (human)): 96%; kinase still bound, per cent of control [3]: 0.55%; kinase still bound, per cent of control (PKN2 (human)): 92%; kinase still bound, per cent of control (CDK8 (human)): 4.6%; kinase still bound, per cent of control (CDK17 (human)): 86%; kinase still bound, per cent of control (FGFR3 (human)): 93%; kinase still bound, per cent of control (CDC42BPG (human)): 34%; kinase still bound, per cent of control (CAMKK1 (human)): 86%; kinase still bound, per cent of control (STK16 (human)): 84%; kinase still bound, per cent of control (PTK2B (human)): 100% |
| O=C(O)c1ccc(Nc2ncc3c(n2)-c2ccc(Cl)cc2C(c2c(F)cccc2F)=NC3)cc1 | 85 | 67 | 65 | 100 | 7.6 | 88 | 100 | 83 | 16 | 89 | 100 | 92 | 76 | 86 | 100 | 99 | 36 | 100 | 7.7 | 72 | kinase still bound, per cent of control (PRKG2 (human)): 96%; kinase still bound, per cent of control (STK10 (human)): 6.7%; kinase still bound, per cent of control (NEK5 (human)): 46%; kinase still bound, per cent of control (STK4 (human)): 85%; kinase still bound, per cent of control (PIP5K1A (human)): 100%; kinase still bound, per cent of control (EPHA1 (human)): 15%; kinase still bound, per cent of control (MLTK (human)): 93%; kinase still bound, per cent of control (GAK (human)): 49%; kinase still bound, per cent of control (RPS6KA4 KD2 (human)): 100%; kinase still bound, per cent of control [3]: 79%; kinase still bound, per cent of control (PKN2 (human)): 79%; kinase still bound, per cent of control (CDK8 (human)): 100%; kinase still bound, per cent of control (CDK17 (human)): 100%; kinase still bound, per cent of control (FGFR3 (human)): 9%; kinase still bound, per cent of control (CDC42BPG (human)): 92%; kinase still bound, per cent of control (CAMKK1 (human)): 89%; kinase still bound, per cent of control (STK16 (human)): 30% |
| CC[C@@H]1C(=O)N(C)c2cnc(Nc3ccc(C(=O)NC4CCN(C)CC4)cc3OC)nc2N1C1CCCC1 | 100 | 100 | 100 | 100 | 100 | 100 | 100 | 100 | 32 | 100 | 100 | 100 | 100 | 100 | 100 | 100 | 100 | 100 | 100 | 100 | kinase still bound, per cent of control (PRKG2 (human)): 100%; kinase still bound, per cent of control (STK10 (human)): 100%; kinase still bound, per cent of control [1]: 100%; kinase still bound, per cent of control (NEK5 (human)): 100%; kinase still bound, per cent of control (STK4 (human)): 100%; kinase still bound, per cent of control [4]: 100%; kinase still bound, per cent of control (PIP5K1A (human)): 100%; kinase still bound, per cent of control (EPHA1 (human)): 100%; kinase still bound, per cent of control (MLTK (human)): 100%; kinase still bound, per cent of control (GAK (human)): 1.6%; kinase still bound, per cent of control (RPS6KA4 KD2 (human)): 0%; kinase still bound, per cent of control [3]: 100%; kinase still bound, per cent of control (CDK8 (human)): 100%; kinase still bound, per cent of control (CDK17 (human)): 100%; kinase still bound, per cent of control (FGFR3 (human)): 100%; kinase still bound, per cent of control (CDC42BPG (human)): 100%; kinase still bound, per cent of control (CAMKK1 (human)): 1.9%; kinase still bound, per cent of control (STK16 (human)): 14%; kinase still bound, per cent of control (PTK2B (human)): 20% |
